Reference: patent publication US20110076377A1, “ETHOID COMPOUNDS FOR USE AS FOOD ADDITIVES” (UNIVERSITY OF VIRGINIA PATENT FOUNDATION, priority 2007, published 2011)
Residues, ends and D or L forms follow the SMILES beside them.

Key:
taste-test volunteers = test: Blind taste test of sweetening potency of aqueous solutions; type: in vivo; conditions: aqueous solutions at 1 mg/ml and 5 mg/ml, six volunteers
Experimental: The sweetening potency of Compounds 1 and 2 was established by conducting blind taste tests of aqueous solutions of each of Compound 1 and 2 compared to aqueous solutions of each of sucrose and aspartame at concentrations of both 1 mg/ml and 5 mg/ml. […] Furthermore, Compound 1, the ethoid version of aspartame, was reported to be approximately 5 to 10 times sweeter than aspartame by the taste-test volunteers.

[1] = Comparative stability of aspartame and aspartame ethoid in PBS solution (HPLC-MS); type: physicochemical; conditions: for half-life: 65° C., PBS pH 7.5; for Cyclized product (%) / SM (%): AUC at 214 nm; for degradation at the 12 hour time point: FIG. 1, PBS pH 7.5, 65° C.
Experimental: Solutions of Aspartame and Compound 1 were prepared by dissolving 10 mg of the subject dipeptide in 4 ml of PBS, pH=7.5. […] Aliquots (50 μl) were withdrawn at the following times: 0, 24 h, 36 h, 48 h and 60 h, and diluted with 125 μl of methanol/acetonitrile/0.1% TFA.
The samples were analyzed by HPLC-MS, using a Gilson HPLC with dual wavelengths UV detector (214 and 254 nm). The following conditions were employed: column: C18; 4.6×250 mm; 5 μmx 6A; solvent system: H2O-1% TFA/Acetonitrile-1% TFA, 1 ml/min, with a gradient of 10% organic phase to 100% organic phase in 10 minutes, followed by a 10 minute hold at 100% of organic phase. As shown in the reaction schemes above, decomposition proceeds mainly via a cyclization reaction to form the corresponding cyclized product and methanol.
The AUC (at 214 nm) values corresponding to the dipeptide and corresponding cyclized products (aspartame→diketopiperazine and aspartame ethoid→ketooxazine) are summarized in the following Table.
See, e.g., FIG. 1, which provides plots of the logarithm of percent of intact dipeptide remaining over time, in hours, for both aspartame and the methyleneoxy ethoid of aspartame. […] The rate of degradation of the methyleneoxy ethoid of aspartame is time, temperature, and pH dependent.

[2] = Solution stability of methyleneoxy ethoid of neotame relative to neotame; type: physicochemical; conditions: FIG. 5B, 60° C., PBS pH 7.5, hydrolysis of methyl ester
Experimental: FIGS. 5A and 5B illustrate the temperature stability of an exemplary ethoid of neotame compared to neotame itself. […] FIG. 5B provides a comparison of the rate of degradation of the methyleneoxy ethoid of neotame versus neotame over time at 60° C. in a solution of phosphate buffered saline at pH 7.5. Specifically, FIG. 5B is a plot of the natural logarithm of the concentration of (neotame/neotame ethoid) over time. The decomposition reaction proceeds via hydrolysis of the methyl ester to the corresponding di-carboxylic acid.
The solution stability of Compound 3 at various temperatures was examined and compared to that of neotame.
The major route leading to loss of neotame is hydrolysis of the methyl ester group as shown above. […] The rates of degradation of neotame and the methyleneoxy ethoid of neotame were examined and compared. […] FIG. 5B is a plot comparing the rate of degradation of neotame to that of the corresponding ethoid.

[3] = reported, background; cited from earlier work

Structure (SMILES)	sweetness compared to sucrose solution (taste-test volunteers)	half-life [1]	Cyclized product (%) ([1]; PBS pH 7.5, 40° C., time 0 h)	SM (%) ([1]; PBS pH 7.5, 40° C., time 0 h)	Cyclized product (%) ([1]; PBS pH 7.5, 40° C., time 24 h)	SM (%) ([1]; PBS pH 7.5, 40° C., time 24 h)	Cyclized product (%) ([1]; PBS pH 7.5, 40° C., time 36 h)	SM (%) ([1]; PBS pH 7.5, 40° C., time 36 h)	Cyclized product (%) ([1]; PBS pH 7.5, 40° C., time 48 h)	SM (%) ([1]; PBS pH 7.5, 40° C., time 48 h)	Cyclized product (%) ([1]; PBS pH 7.5, 40° C., time 60 h)	SM (%) ([1]; PBS pH 7.5, 40° C., time 60 h)	degradation at the 12 hour time point [1]	sweetness relative to sugar [3]	other results
COC(=O)C(Cc1ccccc1)OCC(N)CC(=O)O (centres unmarked) [Compound 1, asp-CH2—O-phe]	significantly sweeter than sugar	305 h	0%	100%	0%	100%	0%	100%	0%	100%	0%	100%	negligible		sweetness relative to aspartame (taste-test volunteers): several-fold sweeter; phenylalanine formation upon degradation [1]: does not form phenylalanine; diketopiperazine formation upon degradation ([1]; Example 4): no diketopiperazine (dkkp) formation; degradation in solution at 40° C. ([1]; PBS pH 7.5, 40° C., up to 60 h): essentially no degradation was observed; improvement of stability over aspartame ([1]; half lives at 65° C., ethoid versus aspartame): over a hundred-fold
COC(=O)C(Cc1ccccc1)OCC(CC(=O)O)NCCC(C)(C)C (centres unmarked) [Compound 3]															rate of degradation compared to neotame [2]: nearly identical
COC(=O)[C@H](Cc1ccccc1)NC(=O)[C@@H](N)CC(=O)O [Aspartame, L-aspartyl-L-phenylalanine methyl ester, reference compound] (H-Asp-Phe-OMe)		2.5 h	0%	100%	95%	5%	100%	0%	100%	0%	100%	0%	essentially complete	approximately 150 times	sweetness relative to an equivalent amount of sugar [3]: 150 fold
CC(=O)NC(COC(CCCCN)C(=O)O)Cc1ccccc1 (centres unmarked) [Compound 2, N—Ac-Phe-CH2—O-Lys]	significantly sweeter than sugar														
O=C1NS(=O)(=O)c2ccccc21 [saccharin]														300-450 times	
